Measurements taken from patent US20230064990A1, “DOSING REGIMENS AND METHODS FOR TREATING CANCER” (Panbela Therapeutics, Inc., priority 2020, published 2023).
Values joined by “and” are separate entries in the source; they are usually repeats but may differ in a detail not shown here. Identical values can stand only once.

What was measured:
metastatic PDA = experiment: Phase 1a/1b study in combination with G and A, efficacy (RECIST, CA19-9); type: in vivo, human
Experimental: (§1) G (1000 mg/m^2) and A (125 mg/m^2) were administered intravenously on Days 1, 8, and 15 of each cycle. […] PK was evaluated on day 1 of cycle 1. Efficacy was assessed by CA19-9 levels, objective response was assessed by RECIST criteria, progression-free survival (PFS) and overall survival (OS).
(§2) This is a multicenter, open label, Phase 1a/1b study to evaluate to evaluate the safety, tolerability, pharmacokinetics and efficacy of (S,S)-(HO)2DEHSPM when administered in combination with G and A as first-line therapy in pancreatic cancer patients previously untreated for metastatic disease. The objective was to determine a recommended Phase 2 dose. Using a modified 3+3 dose escalation scheme, cohorts of subjects were dosed with subcutaneous injections of (S,S)-(HO)2DEHSPM at 0.2, 0.4 or 0.6 mg/kg days 1-5 of each 28-day cycle. Gemcitabine (1000 mg/m^2) and A (125 mg/m^2) were administered intravenously on Days 1, 8, and 15 of each cycle. […] PK was evaluated on day 1 of cycle 1. Efficacy was assessed by objective response rate (ORR) using RECIST criteria and by changes in CA19-9 levels. Subjects were treated until disease progression or the development of dose-limiting toxicity. Based upon initial safety findings and preliminary signals of efficacy, the protocol was amended to evaluate progression-free survival (PFS) and overall survival (OS) and expand the study to up to 36 subjects at the recommended Phase 2 dose. To date, 20 subjects were enrolled in cohorts 1-3 and evaluated for dose limiting toxicity and early signals of efficacy.

[1] = tested on: locally advanced or metastatic PDA; experiment: Phase 1 monotherapy dose escalation study, efficacy (RECIST, overall survival); type: in vivo, human
Experimental: Efficacy was assessed by RECIST criteria and overall survival.

clinical = conditions: human, in vivo
Experimental: Safety and tolerability were evaluated by clinical and laboratory assessments. PK was evaluated on Days 1 and 18 of cycle 1. Efficacy was assessed by RECIST criteria and overall survival.

[2] = tested on: human L3.6pl pancreatic cancer cells; experiment: Orthotopic implantation of L3.6pl pancreatic cancer cells into nude mice; conditions: for Median survival: control group 21 days
Experimental: These studies examined the anti-neoplastic effects of subcutaneous administration of (S,S)-(HO)2DEHSPM following orthotopic implantation of human L3.6pl pancreatic cancer cells into the pancreas of nude mice.
L3.6pl cells were injected into the pancreas of nude mice; treatment was initiated by group (n=10/group planned) 7-10 days later following establishment of tumors:
Study 1: saline (control), (S,S)-(HO)2DEHSPM (25 mg/kg), (S,S)-(HO)2DEHSPM (50 mg/kg), and (S,S)-(HO)2DEHSPM (100 mg/kg) daily (QD) for 4 to 6 weeks (wks).
Study 2: saline (control), (S,S)-(HO)2DEHSPM (25 mg/kg QD), (S,S)-(HO)2DEHSPM (25 mg/kg 3×/wk), (S,S)-(HO)2DEHSPM (15 mg/kg 3×/wk), and (S,S)-(HO)2DEHSPM (5 mg/kg 3×/wk) for 4 to 6 wks.
Study 3: saline (control), gemcitabine (GEM) (100 mg/kg 2×/wk, intraperitoneally), (S,S)-(HO)2DEHSPM (25 mg/kg 3×/wk), and (S,S)-(HO)2DEHSPM+GEM for 4 to 6 wks.

[3] = Phase 1a/1b study in combination with G and A, safety; type: in vivo, human
Experimental: as §1, §2

[4] = Cohorts 2 and 3, N=13 evaluable, with G and A
[5] = in combination with G+A, previously untreated metastatic PDA
[6] = interim, cohorts 2 and 3, with G and A
[7] = Study 3, compared with controls, GEM 100 mg/kg 2×/wk ip, (S,S)-(HO)2DEHSPM 25 mg/kg 3×/wk
[8] = N=20, (S,S)-(HO)2DEHSPM with G + A
[9] = N=20, in combination with G + A

CCNCCC(O)CNCCCCNCC(O)CCNCC [(S,S)-(HO)2DEHSPM, (6S,15S)-3,8,13,18-teraazaicosane-6,15-diol]
Best response PR, number of evaluable subjects (metastatic PDA; [4]): 8
Best response PR, percent of evaluable subjects (metastatic PDA; [4]): 62%
Best response SD, number of evaluable subjects (metastatic PDA; [4]): 5
Best response SD, percent of evaluable subjects (metastatic PDA; [4]): 38%
subjects with CA 19-9 maximum decrease greater than 60% (metastatic PDA; cohorts 2 and 3, N=16, with G and A): 69%
DCR (metastatic PDA; [5]): 85%
ORR (metastatic PDA; [5]): 62%
CA19-9 levels decreased (metastatic PDA; interim, cohorts 2 and 3, 7 of 8 evaluable subjects, with G and A): 76-95%
Stable disease (metastatic PDA; [6]): 1
partial responses (metastatic PDA; [6]): 5 patients
Stable disease ([1]; cohort 3 (0.2 mg/kg), N=4): 2 patients
Median survival ([1]; cohort 3 (0.2 mg/kg), N=4, heavily pre-treated PDA patients): 5.9 months
Stable disease ([1]; cohort 4 (0.4 mg/kg), N=7): 2 patients
Stable disease ([1]; cohort 5 (0.8 mg/kg), N=10): 4 patients
MTD at 3 weeks (clinical): < 0.8 mg/kg and < 0.8 mg/kg/day
reduction in pancreas weight ([2]; Study 1, 25 mg/kg QD subcutaneous, 4 to 6 wks, tumor bearing mice): 82.9%
toxicity / deaths ([2]; Study 1, 50 and 100 mg/kg QD): earlier deaths and proved to be toxic
decreases in pancreas weight and tumor volume ([2]; Study 2, 5 mg/kg 3×/wk): no decreases were noted
decrease in pancreas weight ([2]; Study 2, 15 mg/kg 3×/wk): 20.1%
decrease in tumor volume ([2]; Study 2, 15 mg/kg 3×/wk): 52.6%
reduction in pancreas weight ([2]; Study 2, 25 mg/kg 3×/wk): 47.8%
reduction in tumor volume ([2]; Study 2, 25 mg/kg 3×/wk): 66.6%
Median survival ([2]; Study 2, 25 mg/kg 3×/wk): 42 days
reduction in pancreas weight ([2]; Study 2, 25 mg/kg QD): 72.7%
reduction in tumor volume ([2]; Study 2, 25 mg/kg QD): 81.4%
Median survival ([2]; Study 2, 25 mg/kg QD): 32 days
decreases in body weight ([2]; Study 3, GEM 100 mg/kg 2×/wk ip, (S,S)-(HO)2DEHSPM 25 mg/kg 3×/wk, 4 to 6 wks): 35.6%
decreases in pancreas weight [2, 7]: 58.8%
decreases in tumor volume [2, 7]: 58.4%
Grade ≥3 Anemia related to the named study medication (subjects) ([3]; N=20): 0
Grade ≥3 Dehydration related to the named study medication (subjects) ([3]; N=20): 0
Grade ≥3 Delirium related to the named study medication (subjects) ([3]; N=20): 0
Grade ≥3 Dyspnea related to the named study medication (subjects) ([3]; N=20): 0
Grade ≥3 Elevated LFTs related to the named study medication (subjects) ([3]; N=20): 4
Grade ≥3 Elevated Lipase related to the named study medication (subjects) ([3]; N=20): 1
Grade ≥3 Fatigue related to the named study medication (subjects) ([3]; N=20): 0
Grade ≥3 Hiccups (Intractable) related to the named study medication (subjects) ([3]; N=20): 0
Grade ≥3 Hyponatremia related to the named study medication (subjects) ([3]; N=20): 0
Grade ≥3 Neutropenia related to the named study medication (subjects) ([3]; N=20): 0
Grade ≥3 Thrombocytopenia related to the named study medication (subjects) ([3]; N=20): 0
Grade ≥3 Anemia related to any study medication, Total (%) [3, 8]: (15%)
Grade ≥3 Anemia related to any study medication, Total N [3, 8]: 3
Grade ≥3 Dehydration related to any study medication, Total (%) [3, 8]: (5%)
Grade ≥3 Dehydration related to any study medication, Total N [3, 8]: 1
Grade ≥3 Delirium related to any study medication, Total (%) [3, 8]: (5%)
Grade ≥3 Delirium related to any study medication, Total N [3, 8]: 1
Grade ≥3 Dyspnea related to any study medication, Total (%) [3, 8]: (5%)
Grade ≥3 Dyspnea related to any study medication, Total N [3, 8]: 1
Grade ≥3 Elevated LFTs related to any study medication, Total (%) [3, 8]: (20%)
Grade ≥3 Elevated LFTs related to any study medication, Total N [3, 8]: 4
Grade ≥3 Elevated Lipase related to any study medication, Total (%) [3, 8]: (5%)
Grade ≥3 Elevated Lipase related to any study medication, Total N [3, 8]: 1
Grade ≥3 Fatigue related to any study medication, Total (%) [3, 8]: (5%)
Grade ≥3 Fatigue related to any study medication, Total N [3, 8]: 1
Grade ≥3 Hiccups (Intractable) related to any study medication, Total (%) [3, 8]: (5%)
Grade ≥3 Hiccups (Intractable) related to any study medication, Total N [3, 8]: 1
Grade ≥3 Hyponatremia related to any study medication, Total (%) [3, 8]: (5%)
Grade ≥3 Hyponatremia related to any study medication, Total N [3, 8]: 1
Grade ≥3 Neutropenia related to any study medication, Total (%) [3, 8]: (30%)
Grade ≥3 Neutropenia related to any study medication, Total N [3, 8]: 6
Grade ≥3 Thrombocytopenia related to any study medication, Total (%) [3, 8]: (5%)
Grade ≥3 Thrombocytopenia related to any study medication, Total N [3, 8]: 1
Grade ≥ 3 Anemia, % [3, 9]: 15%
Grade ≥ 3 Diarrhea, % [3, 9]: 0%
Grade ≥ 3 Fatigue, % [3, 9]: 5%
Grade ≥ 3 Leukopenia (G3-4), % [3, 9]: 15%
Grade ≥ 3 Neutropenia (G3-4), % [3, 9]: 30%
Grade ≥ 3 Peripheral Neuropathy, % [3, 9]: 0%
Grade ≥ 3 Thrombocytopenia, % [3, 9]: 5%
Diarrhea, Grade 1 (related AE, subjects) ([3]; N=20, with G+A): 1
Diarrhea, Grade 2 (related AE, subjects) ([3]; N=20, with G+A): 1
Diarrhea, Grade 3 (related AE, subjects) ([3]; N=20, with G+A): 0
Diarrhea, Grade 4 (related AE, subjects) ([3]; N=20, with G+A): 0
Diarrhea, Grade 5 (related AE, subjects) ([3]; N=20, with G+A): 0
Diarrhea, Total (%) (related AE) ([3]; N=20, with G+A): 10%
Diarrhea, Total N (related AE) ([3]; N=20, with G+A): 2
Elevated Liver Function Tests (LFTs), Grade 1 (related AE, subjects) ([3]; N=20, with G+A): 0
Elevated Liver Function Tests (LFTs), Grade 2 (related AE, subjects) ([3]; N=20, with G+A): 0
Elevated Liver Function Tests (LFTs), Grade 3 (related AE, subjects) ([3]; N=20, with G+A): 3
Elevated Liver Function Tests (LFTs), Grade 4 (related AE, subjects) ([3]; N=20, with G+A): 1
Elevated Liver Function Tests (LFTs), Grade 5 (related AE, subjects) ([3]; N=20, with G+A): 0
Elevated Liver Function Tests (LFTs), Total (%) (related AE) ([3]; N=20, with G+A): 20%
Elevated Liver Function Tests (LFTs), Total N (related AE) ([3]; N=20, with G+A): 4
Fatigue, Grade 1 (related AE, subjects) ([3]; N=20, with G+A): 4
Fatigue, Grade 2 (related AE, subjects) ([3]; N=20, with G+A): 3
Fatigue, Grade 3 (related AE, subjects) ([3]; N=20, with G+A): 1
Fatigue, Grade 4 (related AE, subjects) ([3]; N=20, with G+A): 0
Fatigue, Grade 5 (related AE, subjects) ([3]; N=20, with G+A): 0
Fatigue, Total (%) (related AE) ([3]; N=20, with G+A): 40%
Fatigue, Total N (related AE) ([3]; N=20, with G+A): 8
Injection site pain, Grade 1 (related AE, subjects) ([3]; N=20, with G+A): 4
Injection site pain, Grade 2 (related AE, subjects) ([3]; N=20, with G+A): 0
Injection site pain, Grade 3 (related AE, subjects) ([3]; N=20, with G+A): 0
Injection site pain, Grade 4 (related AE, subjects) ([3]; N=20, with G+A): 0
Injection site pain, Grade 5 (related AE, subjects) ([3]; N=20, with G+A): 0
Injection site pain, Total (%) (related AE) ([3]; N=20, with G+A): 20%
Injection site pain, Total N (related AE) ([3]; N=20, with G+A): 4
Nausea, Grade 1 (related AE, subjects) ([3]; N=20, with G+A): 1
Nausea, Grade 2 (related AE, subjects) ([3]; N=20, with G+A): 1
Nausea, Grade 3 (related AE, subjects) ([3]; N=20, with G+A): 0
Nausea, Grade 4 (related AE, subjects) ([3]; N=20, with G+A): 0
Nausea, Grade 5 (related AE, subjects) ([3]; N=20, with G+A): 0
Nausea, Total (%) (related AE) ([3]; N=20, with G+A): 10%
Nausea, Total N (related AE) ([3]; N=20, with G+A): 2
liver enzyme elevation ([3]; interim, one patient in cohort 2 (0.4 mg/kg), with G and A): grade 3-4 reversible liver enzyme elevation
(S,S)-(HO)2DEHSPM-related bone marrow suppression or peripheral neuropathy ([3]; interim, with G and A): no evidence of (S,S)-(HO)2DEHSPM-related bone marrow suppression or peripheral neuropathy
reversibility of (S,S)-(HO)2DEHSPM-related increases in liver toxicity ([3]; when administration was interrupted and dose-reduced or discontinued): reversed in all but one subject
